Measured values: ChEMBL document CHEMBL5214906, “Novel Antiplasmodial Compounds Leveraged with Multistage Potency against the Parasite Plasmodium falciparum: In Vitro and In Vivo Evaluations and Pharmacokinetic Studies” (J Med Chem, 2021)
Calls of active or inactive are those of the source. No cut-off for these calls is given here.

How the values were obtained:
[1] = Cytotoxicity against human HepG2 cells assessed as reduction in cell viability incubated for 48 hrs by MTT assay; type: toxicity, cell-based; settings: read-out: TC50
Plasmodium falciparum [2] = assay: Antiplasmodial activity against Plasmodium falciparum 3D7 infected in human red blood cells assessed as inhibition of parasitemia incubated for 48 hrs by giemsa staining based light microscopic analysis; type: functional, organism-based, Red blood cell; settings: 3D7, Erythrocyte
[3] = Therapeutic index, ratio of TC50 for cytotoxicity against human HepG2 cells to IC50 for antiplasmodial activity against Plasmodium falciparum 3D7 infected in human red blood cells; type: toxicity, cell-based; settings: read-out: TI
Plasmodium falciparum [4] = assay: Inhibition of Plasmodium falciparum plasmepsin X […] at 1 uM using DABCYL-G-PSFVEAPVRGG-EDANS as substrate by fluorescence based assay relative to control
Erythrocyte = assay: Hemolytic activity against human red blood cells upto 1600 uM incubated for 1 hrs by hemolysis assay; type: toxicity, cell-based
Plasmodium falciparum [5] = assay: Antiplasmodial activity against artemisinin partially resistant Plasmodium falciparum harbouring C580Y mutant assessed as inhibition of parasitemia; type: functional, organism-based, Red blood cell; settings: Erythrocyte
Plasmodium falciparum [6] = assay: Resistance index, ratio of IC50 for antiplasmodial activity against artemisinin partially resistant Plasmodium falciparum harbouring C580Y mutant to IC50 for antiplasmodial activity against Plasmodium falciparum 3D7; type: functional
Plasmodium berghei [7] = assay: In vivo antimalarial activity against Plasmodium berghei ANKA infected in C57BL/6 mouse assessed as reduction in parasitemia at 50 mg/kg, ip administered for 4 consecutive days and measured on day 8 post-infection by giemsa staining based microscopic analysis relative to control; type: functional; parameters: scale not given: the % may be the effect or the level left; settings: time 8 day
Plasmodium berghei [8] = assay: In vivo antimalarial activity against GFP-expressing Plasmodium berghei infected in C57BL/6 mouse assessed as inhibition of parasite growth in thick blood smear at 50 mg/kg, ip administered for 4 days and measured upto 8 days post-infection by microscopic analysis; type: functional, organism-based; settings: time <= 8.0 day
Plasmodium berghei [9] = assay: In vivo antimalarial activity against GFP-expressing Plasmodium berghei infected in C57BL/6 mouse assessed as inhibition of parasite growth in thin blood smear at 50 mg/kg, ip administered for 4 days and measured upto 8 days post-infection by giemsa staining based microscopic analysis; type: functional, organism-based; settings: time <= 8.0 day
Plasmodium berghei [10] = assay: In vivo antimalarial activity against Plasmodium berghei ANKA infected in C57BL/6 mouse assessed as reduction in parasitemia at 50 mg/kg, ip administered for 4 days and measured at day 8 post-infection in the presence of artesunate by giemsa staining based microscopic analysis relative to control; type: functional; parameters: scale not given: the % may be the effect or the level left; settings: time 8 day
Plasmodium berghei [11] = assay: In vivo antimalarial activity against Plasmodium berghei ANKA strain infected in C57BL/6 mouse assessed as increase in mean survival time at 50 mg/kg, ip administered for 4 days and measured upto 30 days (reference value: 13 days); type: functional; settings: time <= 30 day
Plasmodium berghei [12] = assay: In vivo antimalarial activity against Plasmodium berghei ANKA strain infected in C57BL/6 mouse assessed as increase in mean survival time at 50 mg/kg, ip administered for 4 days and measured upto 30 days in the presence of artesunate (reference value: 13 days); type: functional; settings: time <= 30 day
Plasmodium berghei [13] = assay: Antiplasmodial activity against firefly luciferase-expressing Plasmodium berghei liver stage infected in human Huh-7 cells assessed as inhibition of parasite growth preincubated with cells for 1 hrs followed by parasite infection and […] by bioluminescence assay; type: functional, organism-based
[14] = Toxicity in C57BL/6 mouse assessed as effect on body weight at 100 to 400 mg/kg, ip measured upto 24 hrs; type: organism-based; settings: in vivo, dose 100-400 mg/kg
[15] = Toxicity in C57BL/6 mouse assessed as effect on feeding at 100 to 400 mg/kg, ip measured upto 24 hrs; type: organism-based; settings: in vivo, dose 100-400 mg/kg
[16] = Toxicity in C57BL/6 mouse assessed as effect on motor activity at 100 to 400 mg/kg, ip measured upto 24 hrs; type: organism-based; settings: in vivo, dose 100-400 mg/kg
[17] = Toxicity in C57BL/6 mouse assessed as effect on total bilirubin level at 400 mg/kg, ip measured upto 24 hrs (reference value: 0.39 mg/dl); type: organism-based; settings: in vivo
[18] = Toxicity in C57BL/6 mouse assessed as effect on direct bilirubin level at 400 mg/kg, ip measured upto 24 hrs (reference value: 0.17 mg/dl); type: organism-based; settings: in vivo
[19] = Toxicity in C57BL/6 mouse assessed as effect on indirect bilirubin level at 400 mg/kg, ip measured upto 24 hrs (reference value: 0.22 mg/dl); type: organism-based; settings: in vivo
[20] = Toxicity in C57BL/6 mouse assessed as effect on SGOT level in serum at 400 mg/kg, ip measured upto 24 hrs (reference value: 147.2 U/L); type: organism-based; settings: in vivo
[21] = Toxicity in C57BL/6 mouse assessed as effect on SGPT level in serum at 400 mg/kg, ip measured upto 24 hrs (reference value: 37.59 U/L); type: organism-based; settings: in vivo
[22] = Toxicity in C57BL/6 mouse assessed as effect on alkaline phosphatase level in serum at 400 mg/kg, ip measured upto 24 hrs (reference value: 108.3 U/L); type: organism-based; settings: in vivo
[23] = Toxicity in C57BL/6 mouse assessed as effect on urea level at 400 mg/kg, ip measured upto 24 hrs (reference value: 44.50 mg/dl); type: organism-based; settings: in vivo
[24] = Toxicity in C57BL/6 mouse assessed as effect on serum creatinine level at 400 mg/kg, ip measured upto 24 hrs (reference value: 0.47 mg/dl); type: organism-based; settings: in vivo
[25] = Toxicity in C57BL/6 mouse assessed as effect on serum uric acid level at 400 mg/kg, ip measured upto 24 hrs (reference value: 2.58 mg/dl); type: organism-based; settings: in vivo
[26] = Toxicity in C57BL/6 mouse assessed as effect on serum calcium level at 400 mg/kg, ip measured upto 24 hrs (reference value: 8.89 mg/dl); type: organism-based; settings: in vivo
[27] = Toxicity in C57BL/6 mouse assessed as effect on serum LDH level at 400 mg/kg, ip measured upto 24 hrs; type: organism-based; settings: in vivo
[28] = Toxicity in C57BL/6 mouse assessed as effect on total protein level at 400 mg/kg, ip measured upto 24 hrs (reference value: 6.29 gm/dl); type: organism-based; settings: in vivo
[29] = Toxicity in C57BL/6 mouse assessed as effect on albumin level at 400 mg/kg, ip measured upto 24 hrs (reference value: 2.10 gm/dl); type: organism-based; settings: in vivo
[30] = Toxicity in C57BL/6 mouse assessed as effect on globulin level at 400 mg/kg, ip measured upto 24 hrs (reference value: 4.19 gm/dl); type: organism-based; settings: in vivo
[31] = Toxicity in C57BL/6 mouse assessed as effect on liver structure at 400 mg/kg, ip measured upto 24 hrs by H&E staining based histopathological analysis; type: organism-based; settings: in vivo
[32] = Toxicity in C57BL/6 mouse assessed as effect on kidney structure at 400 mg/kg, ip measured upto 24 hrs by H&E staining based histopathological analysis; type: organism-based; settings: in vivo
[33] = Drug recovery in C57BL/6 mouse plasma at 0.1 mg/ml; type: ADME, cell-free
Plasmodium berghei [34] = assay: Antiplasmodial activity against Plasmodium berghei isolated from parasite-infected mouse blood assessed as reduction in number of healthy parasites in compound treated ookinete medium co-cultured with mouse blood at 0.05 to 0.45 uM by giemsa staining based analysis; type: functional, organism-based; settings: dose 0.05-0.45 µM
Plasmodium berghei [35] = assay: Antimalarial activity against Plasmodium berghei assessed as reduction in Plasmodium berghei oocyte formation in Anopheles stephensi mosquito midgut fed with blood isolated from compound treated parasite-infected Balb/c mouse at 200 mg/kg administered on day 1 and day 9; type: functional, organism-based; settings: time 9.0 day
Plasmodium berghei [36] = assay: Antimalarial activity against Plasmodium berghei infected in Balb/c mouse assessed as parasite killing at 200 mg/kg administered on day 1 and day 9 relative to control; type: functional; settings: time 9 day
Plasmodium berghei [37] = assay: Antimalarial activity against Plasmodium berghei assessed as reduction in oocyte burden in Anopheles stephensi mosquito midgut fed with blood isolated from compound treated parasite-infected Balb/c mouse at 200 mg/kg administered on day 1 and day 9 relative to control; type: functional; parameters: scale not given: the % may be the effect or the level left; settings: time 9 day

O=C(N[C@@H](Cc1ccccc1)[C@@H](O)CN1CCN(Cc2ccccc2)CC1)c1ccc2ccccc2c1
CC50 at 48 h [1]: 234000 nM | IC50 (Plasmodium falciparum [2]): 150 nM | selectivity ratio [3]: 1560 | inhibition (Plasmodium falciparum [4]): 17.7% | Activity (Erythrocyte): Non-Toxic | IC50 (Plasmodium falciparum [5]): 110 nM | Ratio IC50 (Plasmodium falciparum [6]): 0.72 | Activity (Plasmodium berghei [7]): 75% | Activity (Plasmodium berghei [8]): Active | Activity (Plasmodium berghei [9]): Active | Activity (Plasmodium berghei [10]): 99% | MST (Plasmodium berghei [11]): 17 days | MST (Plasmodium berghei [12]): 27 days | IC50 (Plasmodium berghei [13]): 1560 nM | Activity [14]: Non-Toxic | Activity [15]: Non-Toxic | Activity [16]: Non-Toxic | Activity [17]: 0.28 mg/dL | Activity [18]: 0.11 mg/dL | Activity [19]: 0.17 mg/dL | Activity [20]: 123.1 U/L | Activity [21]: 22.45 U/L | Activity [22]: 41.9 U/L | Activity [23]: 49.03 mg/dL | Activity [24]: 0.77 mg/dL | Activity [25]: 2.49 mg/dL | Activity [26]: 9.24 mg/dL | Activity [27]: Non-Toxic | Activity [28]: 6.82 g/dL | Activity [29]: 2.68 g/dL | Activity [30]: 4.14 g/dL | Activity [31]: Non-Toxic | Activity [32]: Non-Toxic | Drug recovery [33]: > 87.3% | Activity (Plasmodium berghei [34]): Active | Activity (Plasmodium berghei [35]): Active | Activity (Plasmodium berghei [36]): 100% | Activity (Plasmodium berghei [37]): 80%
